From US20260207761A1, “USE OF DRUG CONJUGATE IN TREATMENT OF TUMOR DISEASE AND METHOD” (priority 2023, published 2026)
Where two headings read alike, the source gives them in different places.

How the values were obtained:
[1] = Trial Example 4: pharmacokinetic study, dose-escalation cohort
[2] = for exposure to toxin molecules: 50 mg/kg, after the last administration
[3] = conjugate A 25 mg/kg, female, Day 1
[4] = conjugate A 25 mg/kg, female, Day 43
[5] = conjugate A 25 mg/kg, male, Day 1
[6] = conjugate A 25 mg/kg, male, Day 43
[7] = conjugate A 50 mg/kg, female, Day 1
[8] = conjugate A 50 mg/kg, female, Day 43
[9] = conjugate A 50 mg/kg, male, Day 1
[10] = conjugate A 50 mg/kg, male, Day 43
[11] = conjugate A 75 mg/kg, female, Day 1
[12] = conjugate A 75 mg/kg, female, Day 43
[13] = conjugate A 75 mg/kg, male, Day 1
[14] = conjugate A 75 mg/kg, male, Day 43

With `CC[C@@]1(O)C(=O)OCc2c1cc1n(c2=O)Cc2c-1nc1ccccc1c2CCN(C(C)C)S(C)(=O)=O` [toxins] the “plasma exposure of the free payload, AUC, relative to conjugate A” value ([1]; first 4-week period) was ~5%, the “plasma exposure of the free payload, Cmax, relative to conjugate A” value ([1]; first 4-week period) was “about 6%” and the half-life ([1]; patients, biweekly dosing regimen) was ~49 h. The “exposure to toxin molecules” value ([2]; female monkeys) was 5.86 µg·h/mL, the “exposure to toxin molecules” value ([2]; male monkeys) was 3.85 µg·h/mL and the AUClast of toxins [2, 3] was 1.43 µg·h/mL. The Cmax of toxins [2, 3] was 38.3 ng/mL, the AUClast of toxins [2, 4] was 1.86 µg·h/mL and the Cmax of toxins [2, 4] was 65.1 ng/mL. It also gave an AUClast of toxins [2, 5] of 1.79 µg·h/mL, a Cmax of toxins [2, 5] of 49.0 ng/mL and an AUClast of toxins [2, 6] of 2.57 µg·h/mL. The Cmax of toxins [2, 6] was 64.5 ng/mL, the AUClast of toxins [2, 7] was 3.97 µg·h/mL and the Cmax of toxins [2, 7] was 113 ng/mL. It also gave an AUClast of toxins [2, 8] of 3.85 µg·h/mL, a Cmax of toxins [2, 8] of 127 ng/mL and an AUClast of toxins [2, 9] of 4.49 µg·h/mL. It also gave a Cmax of toxins [2, 9] of 94.0 ng/mL, an AUClast of toxins [2, 10] of 5.86 µg·h/mL and a Cmax of toxins [2, 10] of 146 ng/mL. For the same compound, the AUClast of toxins [2, 11] was 5.12 µg·h/mL, the Cmax of toxins [2, 11] was 132 ng/mL and the AUClast of toxins [2, 12] was 4.68 µg·h/mL. It also gave a Cmax of toxins [2, 12] of 137 ng/mL, an AUClast of toxins [2, 13] of 5.42 µg·h/mL and a Cmax of toxins [2, 13] of 132 ng/mL. It also gave an AUClast of toxins [2, 14] of 4.08 µg·h/mL and a Cmax of toxins [2, 14] of 110 ng/mL.
